Reference: PubChem BioAssay (NCI)
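At the GI50, growth is halved. TGI: total growth inhibition.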

Columns and labels:
Experiment in all cases: growth of human tumour cells (NCI), 384-well format
SK-MEL-5 melanoma = test system: SK-MEL-5 melanoma
MOLT-4 leukemia = test system: MOLT-4 leukemia
NCI-H23 lung = test system: NCI-H23 lung
NCI-H522 lung = test system: NCI-H522 lung
RPMI-8226 leukemia = test system: RPMI-8226 leukemia
HCT-116 colon = test system: HCT-116 colon
SF-539 CNS = test system: SF-539 CNS
OVCAR-8 ovarian = test system: OVCAR-8 ovarian
EKVX NSCLC = test system: EKVX NSCLC
TK-10 renal = test system: TK-10 renal
HS 578T breast = test system: HS 578T breast
COLO 205 colon = test system: COLO 205 colon
786-0 renal = test system: 786-0 renal
NCI-H322M lung = test system: NCI-H322M lung
HOP-92 NSCLC = test system: HOP-92 NSCLC
HT29 colon = test system: HT29 colon
K-562 leukemia = test system: K-562 leukemia
A549 NSCLC = test system: A549 NSCLC
SNB-19 CNS = test system: SNB-19 CNS
HOP-62 NSCLC = test system: HOP-62 NSCLC
HL-60(TB) leukemia = test system: HL-60(TB) leukemia
T-47D breast = test system: T-47D breast
UO-31 renal = test system: UO-31 renal
ACHN renal = test system: ACHN renal
DU-145 prostate = test system: DU-145 prostate
NCI-H460 NSCLC = test system: NCI-H460 NSCLC
MDA-MB-435 melanoma = test system: MDA-MB-435 melanoma
SW-620 colon = test system: SW-620 colon
U251 glioblastoma = test system: U251 glioblastoma
SK-MEL-28 melanoma = test system: SK-MEL-28 melanoma
NCI-H226 lung = test system: NCI-H226 lung
RXF 393 renal = test system: RXF 393 renal
SF-268 CNS = test system: SF-268 CNS
LOX IMVI melanoma = test system: LOX IMVI melanoma
SR leukemia = test system: SR leukemia
SK-OV-3 ovarian = test system: SK-OV-3 ovarian
HCT-15 colon = test system: HCT-15 colon
IGROV1 ovarian = test system: IGROV1 ovarian
MDA-MB-468 breast = test system: MDA-MB-468 breast
MCF7 breast = test system: MCF7 breast
A498 renal = test system: A498 renal
BT-549 breast = test system: BT-549 breast
NCI/ADR-RES ovarian = test system: NCI/ADR-RES ovarian
PC-3 prostate = test system: PC-3 prostate
HCC-2998 colon = test system: HCC-2998 colon
SN12C renal = test system: SN12C renal
CCRF-CEM leukemia = test system: CCRF-CEM leukemia

**Q.** Cc1ccc2c(N)c(C(=O)N[C@H]3CCc4cc(N5CC6CCC(C5)N6)ccc4C3)sc2n1 was tested. Which GI50 (SK-MEL-5 melanoma) did it give?
**A.** The GI50 was 111 nM.

**Q.** And the TGI (SK-MEL-5 melanoma)?
**A.** The TGI was 436 nM.

**Q.** What about the GI50 (MOLT-4 leukemia) of the same compound?
**A.** Its GI50 is 35.1 nM.

**Q.** What about the TGI (MOLT-4 leukemia) of the same compound?
**A.** The TGI was 105 nM.

**Q.** What about the GI50 (NCI-H23 lung) of the same compound?
**A.** The GI50 was 211 nM.

**Q.** What about the TGI (NCI-H23 lung) of the same compound?
**A.** The TGI was 594 nM.

**Q.** And the GI50 (NCI-H522 lung)?
**A.** Its GI50 is 174 nM.

**Q.** What about the TGI (NCI-H522 lung) of the same compound?
**A.** Its TGI is 487 nM.

**Q.** And the GI50 (RPMI-8226 leukemia)?
**A.** Its GI50 is 66.4 nM.

**Q.** And the TGI (RPMI-8226 leukemia)?
**A.** Its TGI is 192 nM.

**Q.** And the GI50 (HCT-116 colon)?
**A.** Its GI50 is 155 nM.

**Q.** And the TGI (HCT-116 colon)?
**A.** The TGI was 925 nM.

**Q.** And the GI50 (SF-539 CNS)?
**A.** Its GI50 is 207 nM.

**Q.** And the TGI (SF-539 CNS)?
**A.** The TGI was 663 nM.

**Q.** What about the GI50 (OVCAR-8 ovarian) of the same compound?
**A.** Its GI50 is 278 nM.

**Q.** What about the TGI (OVCAR-8 ovarian) of the same compound?
**A.** The TGI was 1080 nM.

**Q.** What about the GI50 (EKVX NSCLC) of the same compound?
**A.** The GI50 was 251 nM.

**Q.** And the TGI (EKVX NSCLC)?
**A.** The TGI was 836 nM.

**Q.** What about the GI50 (TK-10 renal) of the same compound?
**A.** The GI50 was 253 nM.

**Q.** And the TGI (TK-10 renal)?
**A.** The TGI was 757 nM.

**Q.** What about the GI50 (HS 578T breast) of the same compound?
**A.** Its GI50 is 180 nM.

**Q.** And the TGI (HS 578T breast)?
**A.** Its TGI is 543 nM.

**Q.** What about the GI50 (COLO 205 colon) of the same compound?
**A.** Its GI50 is 164 nM.

**Q.** And the TGI (COLO 205 colon)?
**A.** Its TGI is 532 nM.

**Q.** And the GI50 ([…]-0 renal)?
**A.** Its GI50 is 229 nM.

**Q.** And the TGI (786-0 renal)?
**A.** Its TGI is 997 nM.

**Q.** What about the GI50 (NCI-H322M lung) of the same compound?
**A.** Its GI50 is 208 nM.

**Q.** And the TGI (NCI-H322M lung)?
**A.** Its TGI is 660 nM.

**Q.** What about the GI50 (HOP-92 NSCLC) of the same compound?
**A.** Its GI50 is 373 nM.

**Q.** What about the TGI (HOP-92 NSCLC) of the same compound?
**A.** The TGI was 1640 nM.

**Q.** What about the GI50 (HT29 colon) of the same compound?
**A.** The GI50 was 386 nM.

**Q.** What about the TGI (HT29 colon) of the same compound?
**A.** The TGI was 4350 nM.

**Q.** And the GI50 (K-562 leukemia)?
**A.** Its GI50 is 74.5 nM.

**Q.** What about the TGI (K-562 leukemia) of the same compound?
**A.** Its TGI is 1080 nM.

**Q.** What about the GI50 (A549 NSCLC) of the same compound?
**A.** Its GI50 is 222 nM.

**Q.** What about the TGI (A549 NSCLC) of the same compound?
**A.** The TGI was 1060 nM.

**Q.** And the GI50 (SNB-19 CNS)?
**A.** Its GI50 is 293 nM.

**Q.** And the TGI (SNB-19 CNS)?
**A.** Its TGI is 2140 nM.

**Q.** What about the GI50 (HOP-62 NSCLC) of the same compound?
**A.** Its GI50 is 148 nM.

**Q.** What about the TGI (HOP-62 NSCLC) of the same compound?
**A.** Its TGI is 624 nM.

**Q.** And the GI50 (HL-60(TB) leukemia)?
**A.** The GI50 was 32 nM.

**Q.** What about the TGI (HL-60(TB) leukemia) of the same compound?
**A.** The TGI was 108 nM.

**Q.** What about the GI50 (T-47D breast) of the same compound?
**A.** Its GI50 is 269 nM.

**Q.** And the TGI (T-47D breast)?
**A.** The TGI was 992 nM.

**Q.** And the GI50 (UO-31 renal)?
**A.** The GI50 was 349 nM.

**Q.** What about the TGI (UO-31 renal) of the same compound?
**A.** The TGI was 1270 nM.

**Q.** And the GI50 (ACHN renal)?
**A.** Its GI50 is 101 nM.

**Q.** And the TGI (ACHN renal)?
**A.** The TGI was 707 nM.

**Q.** What about the GI50 (DU-145 prostate) of the same compound?
**A.** The GI50 was 104 nM.

**Q.** And the TGI (DU-145 prostate)?
**A.** The TGI was 605 nM.

**Q.** What about the GI50 (NCI-H460 NSCLC) of the same compound?
**A.** The GI50 was 66.1 nM.

**Q.** What about the TGI (NCI-H460 NSCLC) of the same compound?
**A.** The TGI was 548 nM.

**Q.** What about the GI50 (MDA-MB-435 melanoma) of the same compound?
**A.** The GI50 was 207 nM.

**Q.** And the TGI (MDA-MB-435 melanoma)?
**A.** Its TGI is 804 nM.

**Q.** What about the GI50 (SW-620 colon) of the same compound?
**A.** The GI50 was 207 nM.

**Q.** And the TGI (SW-620 colon)?
**A.** The TGI was 1070 nM.

**Q.** What about the GI50 (U251 glioblastoma) of the same compound?
**A.** The GI50 was 270 nM.

**Q.** What about the TGI (U251 glioblastoma) of the same compound?
**A.** The TGI was 1030 nM.

**Q.** And the GI50 (SK-MEL-28 melanoma)?
**A.** The GI50 was 269 nM.

**Q.** And the TGI (SK-MEL-28 melanoma)?
**A.** Its TGI is 813 nM.

**Q.** What about the GI50 (NCI-H226 lung) of the same compound?
**A.** Its GI50 is 178 nM.

**Q.** What about the TGI (NCI-H226 lung) of the same compound?
**A.** The TGI was 713 nM.

**Q.** What about the GI50 (RXF 393 renal) of the same compound?
**A.** The GI50 was 116 nM.

**Q.** What about the TGI (RXF 393 renal) of the same compound?
**A.** Its TGI is 406 nM.

**Q.** And the GI50 (SF-268 CNS)?
**A.** Its GI50 is 120 nM.

**Q.** What about the TGI (SF-268 CNS) of the same compound?
**A.** Its TGI is 501 nM.

**Q.** What about the GI50 (LOX IMVI melanoma) of the same compound?
**A.** Its GI50 is 88.7 nM.

**Q.** And the TGI (LOX IMVI melanoma)?
**A.** The TGI was 268 nM.

**Q.** What about the GI50 (SR leukemia) of the same compound?
**A.** The GI50 was 161 nM.

**Q.** What about the TGI (SR leukemia) of the same compound?
**A.** The TGI was 298 nM.

**Q.** And the GI50 (SK-OV-3 ovarian)?
**A.** Its GI50 is 99 nM.

**Q.** And the TGI (SK-OV-3 ovarian)?
**A.** The TGI was 940 nM.

**Q.** What about the GI50 (HCT-15 colon) of the same compound?
**A.** Its GI50 is 260 nM.

**Q.** What about the TGI (HCT-15 colon) of the same compound?
**A.** The TGI was 1030 nM.

**Q.** And the GI50 (IGROV1 ovarian)?
**A.** Its GI50 is 300 nM.

**Q.** And the TGI (IGROV1 ovarian)?
**A.** The TGI was 1120 nM.

**Q.** And the GI50 (MDA-MB-468 breast)?
**A.** Its GI50 is 206 nM.

**Q.** And the TGI (MDA-MB-468 breast)?
**A.** The TGI was 691 nM.

**Q.** What about the GI50 (MCF7 breast) of the same compound?
**A.** Its GI50 is 94.9 nM.

**Q.** And the TGI (MCF7 breast)?
**A.** Its TGI is 1110 nM.

**Q.** And the GI50 (A498 renal)?
**A.** The GI50 was 164 nM.

**Q.** What about the TGI (A498 renal) of the same compound?
**A.** Its TGI is 892 nM.

**Q.** What about the GI50 (BT-549 breast) of the same compound?
**A.** The GI50 was 154 nM.

**Q.** What about the TGI (BT-549 breast) of the same compound?
**A.** Its TGI is 423 nM.

**Q.** And the GI50 (NCI/ADR-RES ovarian)?
**A.** Its GI50 is 326 nM.

**Q.** And the TGI (NCI/ADR-RES ovarian)?
**A.** The TGI was 1190 nM.

**Q.** What about the GI50 (PC-3 prostate) of the same compound?
**A.** The GI50 was 222 nM.

**Q.** What about the TGI (PC-3 prostate) of the same compound?
**A.** The TGI was 989 nM.

**Q.** What about the GI50 (HCC-2998 colon) of the same compound?
**A.** Its GI50 is 246 nM.

**Q.** What about the TGI (HCC-2998 colon) of the same compound?
**A.** The TGI was 751 nM.

**Q.** And the GI50 (SN12C renal)?
**A.** The GI50 was 124 nM.

**Q.** What about the TGI (SN12C renal) of the same compound?
**A.** The TGI was 647 nM.

**Q.** What about the GI50 (CCRF-CEM leukemia) of the same compound?
**A.** The GI50 was 42.3 nM.

**Q.** And the TGI (CCRF-CEM leukemia)?
**A.** Its TGI is 133 nM.
